Data: US20070026080A1, “Manufacturing process for tigecycline” (Wyeth, priority 2005, published 2007)

Assay: Strength and degradation profile of tigecycline 20 mg/mL bulk solutions by reversed phase HPLC (effect of temperature, time, pH, dissolved oxygen; Runs A to O)
Format: physicochemical
Conditions: 20 mg/mL
Experimental: The contents of the sample vials are dissolved in diluent. The sample solution is diluted, if necessary, and chromatographed on a reversed phase column using gradient elution. Impurities are determined by comparing the impurity peak areas in the sample preparation chromatogram to the average area of tigecycline peaks in the standard preparation chromatograms obtained concomitantly.
Chromatographic Column—Length about 15 cm, inside diameter about 4.6 mm, packed with Inertsil ODS2, 5 μm size particles or equivalent.
Detector—Ultraviolet spectrophotometric detector capable of operating at 248 nm with a sensitivity of about 0.5 absorbance units full scale.
The results of additional studies to investigate the effect of processing parameters such as temperature, time, and dissolved oxygen content on the purity profile of tigecycline solutions using the following materials, methods and procedures are presented in Tables A to O.
The experiments were run in plastic glove bags under normal laboratory light conditions. Plastic glove boxes will be used to control the headspace of the beakers. The batch size was 200 mL. • 1. Prepare the glove bag with a mixture of nitrogen and air to achieve an oxygen level in the solution as per the design. • 2. Place the jacketed beaker on the magnetic stirrer. Connect it to the cooler. Set the cooler to the desired set point. • 3. Add 200 mL of SWFI in to the beaker. Allow equilibrating. Measure the temperature and oxygen content. When it reaches the desired condition, add accurately weighed API and mix until dissolved. If necessary use spatula to aid dissolution. For pH adjustments, use 4 mL of either 0.1N NaOH or 0.1N HCl and 196 mL of WFI for manufacture. • 4. After complete dissolution, Transfer about 5.5 mL of Solution in vials and stopper them. These vials will be stoppered at the appropriate headspace conditions. Place the vials in appropriate temperature conditions. • 5. Sample the vials at 1, 4, 8, 10, 12 and 24 hours. Send the samples for analysis. Freeze the 10, 12 and 24 samples at −20° C. for analysis the following day. • 6. Measure pH and record color of the solution at each time point. Results
The 1-hour samples were taken directly from the beakers. Samples for later time points were collected in stoppered vials processed in the atmosphere of the bag in order to simulate the headspace conditions then placed in water baths or refrigerator to maintain there respective temperature conditions. This was done to maintain safety in the lab. Disposable plastic glove bags require constant flow of a mixture of nitrogen and air to maintain headspace oxygen level that will result in the desired dissolved oxygen (DO) content in the sample. The pH of samples was measured at each sample points.
Strength and degradation profile was analyzed by HPLC as described above. […] Degradation was slightly higher at higher temperature condition.

[1] = Run #I, 5° C., pH 7.9, Oxygen 1.0 mg/L, hours 1,4,8,10,12,24 at r6-r11, 24 h
[2] = Run #I, 5° C., pH 7.9, Oxygen 1.0 mg/L, hours 1,4,8,10,12,24 at r17-r22
[3] = Run #I, 5° C., pH 7.9, Oxygen 1.0 mg/L, hours 1,4,8,10,12,24 at r17-r22, 1 h
[4] = Run #I, 5° C., pH 7.9, Oxygen 1.0 mg/L, hours 1,4,8,10,12,24 at r17-r22, 4 h
[5] = Run #I, 5° C., pH 7.9, Oxygen 1.0 mg/L, hours 1,4,8,10,12,24 at r17-r22, 8 h
[6] = Run #I, 5° C., pH 7.9, Oxygen 1.0 mg/L, hours 1,4,8,10,12,24 at r17-r22, 10 h
[7] = Run #I, 5° C., pH 7.9, Oxygen 1.0 mg/L, hours 1,4,8,10,12,24 at r17-r22, 24 h
[8] = Run #J, 8° C., Oxygen = 1.0 mg/mL, hours 1,4,8,12,24 at r6-r10, 1 hours
[9] = Run #J, 8° C., Oxygen = 1.0 mg/mL, hours 1,4,8,12,24 at r6-r10, 4 hours
[10] = Run #J, 8° C., Oxygen = 1.0 mg/mL, hours 1,4,8,12,24 at r6-r10, 8 hours
[11] = Run #J, 8° C., Oxygen = 1.0 mg/mL, hours 1,4,8,12,24 at r6-r10, 12 hours
[12] = Run #J, 8° C., Oxygen = 1.0 mg/mL, hours 1,4,8,12,24 at r6-r10, 24 hours
[13] = Run #J, 8° C., hours 1,4,8,12,24 at r6-r10, 1 hours
[14] = Run #J, 8° C., hours 1,4,8,12,24 at r6-r10, 4 hours
[15] = Run #J, 8° C., hours 1,4,8,12,24 at r6-r10, 8 hours
[16] = Run #J, 8° C., hours 1,4,8,12,24 at r6-r10, 12 hours
[17] = Run #J, 8° C., hours 1,4,8,12,24 at r6-r10, 24 hours
[18] = Run #K, 2° C., pH 8.2, Oxygen 0.1 mg/L, hours 1,4,8,10,12,24 at r6-r11
[19] = Run #K, 2° C., pH 8.2, Oxygen 0.1 mg/L, hours 1,4,8,10,12,24 at r6-r11, after 1 hours
[20] = Run #K, 2° C., pH 8.2, Oxygen 0.1 mg/L, hours 1,4,8,10,12,24 at r6-r11, after 4 hours
[21] = Run #K, 2° C., pH 8.2, Oxygen 0.1 mg/L, hours 1,4,8,10,12,24 at r6-r11, after 8 hours
[22] = Run #K, 2° C., pH 8.2, Oxygen 0.1 mg/L, hours 1,4,8,10,12,24 at r6-r11, after 10 hours
[23] = Run #K, 2° C., pH 8.2, Oxygen 0.1 mg/L, hours 1,4,8,10,12,24 at r6-r11, after 12 hours

With `CN(C)c1cc(NC(=O)CNC(C)(C)C)c(O)c2c1C[C@H]1C[C@H]3[C@H](N(C)C)C(O)=C(C(N)=O)C(=O)[C@@]3(O)C(O)=C1C2=O` [Tigecycline] as the compound, how does the Strength (Run #I, 5° C., pH 7.9, Oxygen 1.0 mg/L, hours 1,4,8,10,12,24 at r6-r11, 12 h) read?
Its Strength is 19.151 mg/mL.

And the “RRT 0.58” value [1]?
The value was 0.10%.

What about the “RRT 0.74 Epimer” value [1] of the same compound?
Its value is 0.23%.

And the Strength [1]?
The Strength was 19.242 mg/mL.

And the “RRT 0.78 MW = 557” value [2]?
The value was “BRL (BRL means below reporting limit (meaning less than 0.05% of tigecycline peak))”.

And the “RRT 1.12” value [2]?
The value was “BRL (BRL means below reporting limit (meaning less than 0.05% of tigecycline peak))”.

And the “RRT 1.64 Mino” value [3]?
The value was 0.13%.

What about the “RRT 1.85 MW = 597” value [3] of the same compound?
The value was 0.06%.

What about the Total [3] of the same compound?
Its Total is 0.54%.

And the “RRT 1.64 Mino” value [4]?
Its value is 0.10%.

And the “RRT 1.85 MW = 597” value [4]?
The value was 0.09%.

And the “RRT 1.64 Mino” value [5]?
Its value is 0.09%.

And the “RRT 1.85 MW = 597” value [5]?
Its value is 0.08%.

What about the Total [5] of the same compound?
The Total was 0.53%.

What about the “RRT 1.64 Mino” value [6] of the same compound?
Its value is 0.08%.

What about the “RRT 1.85 MW = 597” value [6] of the same compound?
Its value is 0.10%.

What about the Total [6] of the same compound?
The Total was 0.98%.

What about the Total (Run #I, 5° C., pH 7.9, Oxygen 1.0 mg/L, hours 1,4,8,10,12,24 at r17-r22, 12 h) of the same compound?
Its Total is 0.71%.

What about the “RRT 1.64 Mino” value [7] of the same compound?
Its value is 0.11%.

And the Total [7]?
Its Total is 0.96%.

And the “RRT 1.67 MW = 556” value [8]?
Its value is 0.09%.

And the Strength [8]?
Its Strength is 19.515 mg/mL.

And the “RRT 1.67 MW = 556” value [9]?
The value was 0.17%.

And the Strength [9]?
The Strength was 19.469 mg/mL.

And the “RRT 1.67 MW = 556” value [10]?
Its value is 0.15%.

And the Strength [10]?
The Strength was 19.323 mg/mL.

What about the “RRT 1.67 MW = 556” value [11] of the same compound?
The value was 0.19%.

What about the Strength [11] of the same compound?
The Strength was 19.140 mg/mL.

What about the “RRT 1.67 MW = 556” value [12] of the same compound?
The value was 0.21%.

What about the Strength [12] of the same compound?
The Strength was 19.152 mg/mL.

What about the “RRT 0.58” value [13] of the same compound?
Its value is 0.06%.

What about the “RRT 0.74 Epimer” value [13] of the same compound?
The value was 0.20%.

What about the “RRT 1.45” value [13] of the same compound?
Its value is 0.08%.

And the “RRT 1.85 MW = 597” value [13]?
The value was 0.09%.

What about the Total [13] of the same compound?
Its Total is 0.62%.

What about the “RRT 0.74 Epimer” value [14] of the same compound?
The value was 0.22%.

What about the “RRT 1.45” value [14] of the same compound?
The value was 0.06%.

What about the “RRT 1.64 Mino” value [14] of the same compound?
Its value is 0.09%.

What about the “RRT 1.85 MW = 597” value [14] of the same compound?
The value was 0.08%.

And the Total [14]?
Its Total is 0.90%.

And the “RRT 1.45” value [15]?
Its value is 0.07%.

And the Total [15]?
The Total was 1.00%.

What about the “RRT 0.74 Epimer” value [16] of the same compound?
The value was 0.24%.

And the “RRT 1.64 Mino” value [16]?
Its value is 0.10%.

And the “RRT 1.85 MW = 597” value [16]?
Its value is 0.11%.

What about the Total [16] of the same compound?
The Total was 1.17%.

What about the “RRT 0.58” value [17] of the same compound?
Its value is 0.08%.

And the “RRT 0.74 Epimer” value [17]?
Its value is 0.28%.

What about the “RRT 1.45” value [17] of the same compound?
Its value is 0.05%.

And the “RRT 1.64 Mino” value [17]?
Its value is 0.11%.

And the “RRT 1.85 MW = 597” value [17]?
Its value is 0.10%.

And the Total [17]?
The Total was 1.76%.

And the “RRT 0.12 MW = 633” value [18]?
Its value is “BRL (BRL means below reporting limit (meaning less than 0.05% of tigecycline peak))”.

And the “RRT 0.23 MW = 572” value [18]?
The value was “BRL (BRL means below reporting limit (meaning less than 0.05% of tigecycline peak))”.

And the “RRT 0.50 MW = 601” value [18]?
Its value is “BRL (BRL means below reporting limit (meaning less than 0.05% of tigecycline peak))”.

And the “RRT 0.55 MW = 583” value [18]?
Its value is “BRL (BRL means below reporting limit (meaning less than 0.05% of tigecycline peak))”.

And the “RRT 0.64 9-Amino” value [18]?
The value was “BRL (BRL means below reporting limit (meaning less than 0.05% of tigecycline peak))”.

What about the “RRT 0.78 MW = 557” value [18] of the same compound?
The value was “BRL (BRL means below reporting limit (meaning less than 0.05% of tigecycline peak))”.

What about the “RRT 1.12” value [18] of the same compound?
The value was “BRL (BRL means below reporting limit (meaning less than 0.05% of tigecycline peak))”.

And the “RRT 1.58” value [18]?
The value was “BRL (BRL means below reporting limit (meaning less than 0.05% of tigecycline peak))”.

And the “RRT 1.67 MW = 556” value [18]?
The value was “BRL (BRL means below reporting limit (meaning less than 0.05% of tigecycline peak))”.

What about the “RRT 0.74 Epimer” value [19] of the same compound?
Its value is 0.16%.

And the “RRT 1.64 Mino” value [19]?
Its value is 0.12%.

And the Strength [19]?
Its Strength is 19.187 mg/mL.

And the Total [19]?
The Total was 0.51%.

What about the “RRT 0.74 Epimer” value [20] of the same compound?
Its value is 0.18%.

What about the “RRT 1.64 Mino” value [20] of the same compound?
The value was 0.13%.

What about the Strength [20] of the same compound?
The Strength was 19.324 mg/mL.

What about the Total [20] of the same compound?
Its Total is 0.61%.

What about the “RRT 0.58” value [21] of the same compound?
The value was 0.07%.

What about the Strength [21] of the same compound?
Its Strength is 19.127 mg/mL.

What about the Total [21] of the same compound?
Its Total is 0.63%.

What about the “RRT 0.74 Epimer” value [22] of the same compound?
The value was 0.19%.

What about the “RRT 1.64 Mino” value [22] of the same compound?
The value was 0.15%.

What about the “RRT 1.85 MW = 597” value [22] of the same compound?
The value was 0.10%.

And the Strength [22]?
The Strength was 20.357 mg/mL.

What about the Total [22] of the same compound?
Its Total is 0.59%.

What about the “RRT 0.58” value [23] of the same compound?
Its value is 0.08%.

What about the “RRT 0.74 Epimer” value [23] of the same compound?
Its value is 0.22%.

What about the “RRT 1.45” value [23] of the same compound?
The value was 0.09%.

What about the “RRT 1.64 Mino” value [23] of the same compound?
Its value is 0.10%.

And the “RRT 1.85 MW = 597” value [23]?
The value was 0.09%.

What about the Strength [23] of the same compound?
Its Strength is 19.956 mg/mL.

And the Total [23]?
The Total was 0.56%.
